Here are results for 54 compounds from ChEMBL document CHEMBL3880420, “1,5-Diaryl-2-alkylpyrrole-3-Substituted Nitro Esters, Selective COX-2 Inhibitors and Nitric Oxide Donors” (2013).

Activity calls are given as the source filed them. The rule behind the calls is not given here.

Test system in the first test: not listed separately
Kind of test: Vasorelaxing effect in Wistar rat thoracic aorta ring assessed as reduction of KCl-induced contractile tone at 10 uM in presence of guanylate cyclase inhibitor ODQ1. The format is functional.
Settings: not given
Consider `CSc1ccc(-n2c(-c3ccc(S(C)(=O)=O)cc3)cc(CC(=O)OCCCCO[N+](=O)[O-])c2C)cc1`, for which the outcome was Active.

As for `Cc1c(C(N)C(=O)OCCCO[N+](=O)[O-])cc(-c2ccc(S(C)(=O)=O)cc2)n1-c1ccc(F)cc1` (racemic), the outcome was Active.

With `Cc1c(C(N)C(=O)OCCCCO[N+](=O)[O-])cc(-c2ccc(S(C)(=O)=O)cc2)n1-c1ccc(F)cc1` (racemic), the result was Active.

The next test deals with T1, Prostaglandin G/H synthase 1 (Mus musculus) (UniProt P22437).
T1 sequence (whole entry): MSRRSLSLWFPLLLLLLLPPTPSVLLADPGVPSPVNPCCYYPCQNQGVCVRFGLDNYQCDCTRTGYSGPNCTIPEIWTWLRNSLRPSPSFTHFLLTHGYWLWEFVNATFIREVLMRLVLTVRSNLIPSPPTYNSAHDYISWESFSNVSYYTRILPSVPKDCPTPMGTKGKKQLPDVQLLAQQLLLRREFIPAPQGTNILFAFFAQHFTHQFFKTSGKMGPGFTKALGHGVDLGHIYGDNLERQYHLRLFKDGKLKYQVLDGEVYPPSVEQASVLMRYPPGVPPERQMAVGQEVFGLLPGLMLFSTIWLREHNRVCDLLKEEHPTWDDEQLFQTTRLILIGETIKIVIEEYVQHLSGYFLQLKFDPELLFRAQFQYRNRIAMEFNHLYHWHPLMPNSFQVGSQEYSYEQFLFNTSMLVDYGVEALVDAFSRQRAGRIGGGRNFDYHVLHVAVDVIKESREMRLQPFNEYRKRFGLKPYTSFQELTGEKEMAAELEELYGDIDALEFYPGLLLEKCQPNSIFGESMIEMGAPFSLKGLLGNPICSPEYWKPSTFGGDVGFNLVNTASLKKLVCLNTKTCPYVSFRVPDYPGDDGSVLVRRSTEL
The experiment in a line: Inhibition of COX1 in mouse J774 cells using arachidonic acid as substrate assessed as decrease in PGE2 production at 10 uM preincubated for 15 mins followed by substrate addition measured after 30 mins by radioimmunoassay relative to control. The class given is cell-based.
Settings: not given
As to `Cc1c(CC(=O)OCCO[N+](=O)[O-])cc(-c2ccc(S(C)(=O)=O)cc2)n1-c1ccc(F)cc1`, the inhibition was below 20%.

In the case of `Cc1c(CC(=O)N[C@@H](CO[N+](=O)[O-])C(=O)O)cc(-c2ccc(S(C)(=O)=O)cc2)n1-c1cccc(F)c1`, the inhibition was below 20%.

As for `COc1ccc(-n2c(-c3ccc(S(C)(=O)=O)cc3)cc(CC(=O)OCCCO)c2C)cc1`, the inhibition was below 20%.

In the case of `CSc1ccc(-n2c(-c3ccc(S(C)(=O)=O)cc3)cc(CC(=O)OCCCO[N+](=O)[O-])c2C)cc1`, the inhibition was below 20%.

Regarding `Cc1c(CC(=O)OCCCCO[N+](=O)[O-])cc(-c2ccc(S(C)(=O)=O)cc2)n1-c1cccc(F)c1`, the inhibition is below 20%.

Regarding `Cc1c(CC(=O)NCCO)cc(-c2ccc(S(C)(=O)=O)cc2)n1-c1cccc(F)c1`, the inhibition was below 20%.

For `Cc1c(CCOCCO[N+](=O)[O-])cc(-c2ccc(S(C)(=O)=O)cc2)n1-c1ccc(F)c(F)c1`, the inhibition was below 20%.

As to `CSc1ccc(-n2c(-c3ccc(S(C)(=O)=O)cc3)cc(CC(=O)OCCCO)c2C)cc1`, the inhibition was below 20%.

As to `Cc1c(CC(=O)NCCCO)cc(-c2ccc(S(C)(=O)=O)cc2)n1-c1cccc(F)c1`, the inhibition is below 20%.

`Cc1c(CC(=O)OCCO[N+](=O)[O-])cc(-c2ccc(S(C)(=O)=O)cc2)n1-c1ccccc1`: the inhibition was below 20%.

Regarding `Cc1c(CC(=O)N[C@@H](CO[N+](=O)[O-])C(=O)O)cc(-c2ccc(S(C)(=O)=O)cc2)n1-c1ccc(F)cc1`, the inhibition is below 20%.

As to `Cc1c(CC(=O)OCC(CO[N+](=O)[O-])O[N+](=O)[O-])cc(-c2ccc(S(C)(=O)=O)cc2)n1-c1ccccc1` (racemic), the inhibition was below 20%.

On to `Cc1c(CC(=O)NCCCO)cc(-c2ccc(S(C)(=O)=O)cc2)n1-c1ccc(F)cc1`, for which the inhibition is below 20%.

Take `COc1ccc(-n2c(-c3ccc(S(C)(=O)=O)cc3)cc(CC(=O)OCCCCO)c2C)cc1`: the inhibition is below 20%.

Turning to `Cc1c(C(N)C(=O)OCCO[N+](=O)[O-])cc(-c2ccc(S(C)(=O)=O)cc2)n1-c1ccc(F)cc1` (racemic), the inhibition is below 20%.

For `CSc1ccc(-n2c(-c3ccc(S(C)(=O)=O)cc3)cc(CC(=O)OCCCCO[N+](=O)[O-])c2C)cc1`, the inhibition is below 20%.

In the case of `Cc1c(CCOCCO[N+](=O)[O-])cc(-c2ccc(S(C)(=O)=O)cc2)n1-c1ccc(F)cc1`, the inhibition was below 20%.

In the case of `COc1ccc(-n2c(-c3ccc(S(C)(=O)=O)cc3)cc(CC(=O)OCCCCO[N+](=O)[O-])c2C)cc1`, the inhibition was below 20%.

On to `Cc1c(CC(=O)N[C@@H](CO)C(=O)O)cc(-c2ccc(S(C)(=O)=O)cc2)n1-c1cccc(F)c1`, for which the inhibition is below 20%.

Turning to `Cc1c(CC(=O)NCCO[N+](=O)[O-])cc(-c2ccc(S(C)(=O)=O)cc2)n1-c1ccc(F)cc1`, the inhibition was below 20%.

As to `Cc1c(CCOCCO)cc(-c2ccc(S(C)(=O)=O)cc2)n1-c1cccc(F)c1`, the inhibition was below 20%.

For `Cc1c(CC(=O)NC(CCO[N+](=O)[O-])C(=O)O)cc(-c2ccc(S(C)(=O)=O)cc2)n1-c1ccc(F)cc1` (racemic), the inhibition is below 20%.

Turning to `Cc1c(CCOCCCO[N+](=O)[O-])cc(-c2ccc(S(C)(=O)=O)cc2)n1-c1cccc(F)c1`, the inhibition is below 20%.

`Cc1c(CCOCCO)cc(-c2ccc(S(C)(=O)=O)cc2)n1-c1ccc(F)c(F)c1`: the inhibition was below 20%.

With `Cc1c(CCOCCCO[N+](=O)[O-])cc(-c2ccc(S(C)(=O)=O)cc2)n1-c1ccccc1`, the inhibition is below 20%.

For the compound `COc1ccc(-n2c(-c3ccc(S(C)(=O)=O)cc3)cc(CC(=O)OCCO[N+](=O)[O-])c2C)cc1`, the inhibition is below 20%.

In the case of `Cc1c(CC(=O)OCCO[N+](=O)[O-])cc(-c2ccc(S(C)(=O)=O)cc2)n1-c1cccc(F)c1`, the inhibition is below 20%.

Turning to `CSc1ccc(-n2c(-c3ccc(S(C)(=O)=O)cc3)cc(CC(=O)OCCO)c2C)cc1`, the inhibition was below 20%.

As to `Cc1c(CC(=O)NC(CCO)C(=O)O)cc(-c2ccc(S(C)(=O)=O)cc2)n1-c1ccc(F)cc1` (racemic), the inhibition is below 20%.

As to `Cc1c(CC(=O)N[C@@H](CO)C(=O)O)cc(-c2ccc(S(C)(=O)=O)cc2)n1-c1ccc(F)cc1`, the inhibition is below 20%.

Consider `COc1ccc(-n2c(-c3ccc(S(C)(=O)=O)cc3)cc(CC(=O)OCCCO[N+](=O)[O-])c2C)cc1`, for which the inhibition is below 20%.

For `Cc1c(CCOCCO)cc(-c2ccc(S(C)(=O)=O)cc2)n1-c1ccccc1`, the inhibition is below 20%.

For the compound `COc1ccc(-n2c(-c3ccc(S(C)(=O)=O)cc3)cc(CC(=O)OCCO)c2C)cc1`, the inhibition is below 20%.

In the case of `Cc1c(CC(=O)OCCO)cc(-c2ccc(S(C)(=O)=O)cc2)n1-c1ccc(F)cc1`, the inhibition is below 20%.

`Cc1c(CCOCCO)cc(-c2ccc(S(C)(=O)=O)cc2)n1-c1ccc(F)cc1`: the inhibition was below 20%.

Take `CSc1ccc(-n2c(-c3ccc(S(C)(=O)=O)cc3)cc(CC(=O)OCCO[N+](=O)[O-])c2C)cc1`: the inhibition is below 20%.

For `Cc1c(CCOCCCO[N+](=O)[O-])cc(-c2ccc(S(C)(=O)=O)cc2)n1-c1ccc(F)cc1`, the inhibition is below 20%.

Regarding `Cc1c(C(N)C(=O)OCCCO[N+](=O)[O-])cc(-c2ccc(S(C)(=O)=O)cc2)n1-c1ccc(F)cc1` (racemic), the inhibition is below 20%.

On to `Cc1c(CC(=O)OCCCO[N+](=O)[O-])cc(-c2ccc(S(C)(=O)=O)cc2)n1-c1cccc(F)c1`, for which the inhibition was below 20%.

In the case of `Cc1c(CC(=O)OCCCCO)cc(-c2ccc(S(C)(=O)=O)cc2)n1-c1cccc(F)c1`, the inhibition is below 20%.

`Cc1c(CC(=O)OCCCO)cc(-c2ccc(S(C)(=O)=O)cc2)n1-c1cccc(F)c1`: the inhibition is below 20%.

Turning to `Cc1c(CC(=O)OCCO)cc(-c2ccc(S(C)(=O)=O)cc2)n1-c1cccc(F)c1`, the inhibition is below 20%.

For the compound `Cc1c(C(N)C(=O)OCCCCO[N+](=O)[O-])cc(-c2ccc(S(C)(=O)=O)cc2)n1-c1ccc(F)cc1` (racemic), the inhibition was below 20%.

For `Cc1c(CCOCCCO)cc(-c2ccc(S(C)(=O)=O)cc2)n1-c1ccc(F)cc1`, the inhibition was below 20%.

For `CSc1ccc(-n2c(-c3ccc(S(C)(=O)=O)cc3)cc(CC(=O)OCCCCO)c2C)cc1`, the inhibition is below 20%.

As to `Cc1c(CC(=O)OCCO)cc(-c2ccc(S(C)(=O)=O)cc2)n1-c1ccccc1`, the inhibition was below 20%.

As to `Cc1c(CCOCCO[N+](=O)[O-])cc(-c2ccc(S(C)(=O)=O)cc2)n1-c1ccccc1`, the inhibition is below 20%.

Turning to `Cc1c(CCOCCCO)cc(-c2ccc(S(C)(=O)=O)cc2)n1-c1cccc(F)c1`, the inhibition was below 20%.

As for `Cc1c(CCOCCO[N+](=O)[O-])cc(-c2ccc(S(C)(=O)=O)cc2)n1-c1cccc(F)c1`, the inhibition is below 20%.

Turning to `Cc1c(CC(=O)OCCCCO[N+](=O)[O-])cc(-c2ccc(S(C)(=O)=O)cc2)n1-c1ccc(F)cc1`, the inhibition is below 20%.

On to `Cc1c(CC(=O)NC(CCO[N+](=O)[O-])C(=O)O)cc(-c2ccc(S(C)(=O)=O)cc2)n1-c1cccc(F)c1` (racemic), for which the inhibition was below 20%.

For the compound `Cc1c(CC(=O)NCCO)cc(-c2ccc(S(C)(=O)=O)cc2)n1-c1ccc(F)cc1`, the inhibition is below 20%.

The next test relates to Liver. The experiment in a line: Induction of nitric oxide release in rat liver assessed as increase in nitrite levels at 1 mM by amperometric method. The format is functional, tissue-based. The following applies: TDE = time-dependent effect.
As to `Cc1c(CCOCCCO[N+](=O)[O-])cc(-c2ccc(S(C)(=O)=O)cc2)n1-c1cccc(F)c1`, the Activity result was “Tde”.

For the compound `COc1ccc2cc([C@H](C)C(=O)OCCCCO[N+](=O)[O-])ccc2c1`, the Activity result is “Tde”.

For another test, the system named is Liver. Kind of test: Induction of nitric oxide release in rat liver assessed as time require for amount of nitrite release by test compound equal to half its maximum release at 1 mM by amperometric method. The format is functional.
Settings: not given
For the compound `Cc1c(CC(=O)OCCO[N+](=O)[O-])cc(-c2ccc(S(C)(=O)=O)cc2)n1-c1ccc(F)cc1`, the T1/2 was 1.15 h.

On to `Cc1c(CCOCCO[N+](=O)[O-])cc(-c2ccc(S(C)(=O)=O)cc2)n1-c1ccc(F)c(F)c1`, for which the T1/2 was 1.14 h.

As for `Cc1c(CCOCCO[N+](=O)[O-])cc(-c2ccc(S(C)(=O)=O)cc2)n1-c1ccc(F)cc1`, the T1/2 was found to be 0.713 h.

As for `Cc1c(CCOCCCO[N+](=O)[O-])cc(-c2ccc(S(C)(=O)=O)cc2)n1-c1cccc(F)c1`, the T1/2 turned out to be 1.41 h.

Turning to `O=C(NCCO[N+](=O)[O-])c1cccnc1`, the T1/2 worked out at 0.463 h.

In the case of `Cc1c(CCOCCO[N+](=O)[O-])cc(-c2ccc(S(C)(=O)=O)cc2)n1-c1cccc(F)c1`, the T1/2 was 1.01 h.
